Experimental data reported in patent US20240317723A1, “SUBSTITUTED AMINO AZA-HETEROARYL COMPOUNDS AS INHIBITORS OF THE HAEMATOPOIETIC PROGENITOR KINASE 1 (HPK1)” (priority 2021, published 2024).

Experiments:
[1] = target: T1, Recombinant (1-346) HPK1 (h) (Homo sapiens, UniProt Q92918); experiment: HPK1 Human STE Kinase Enzymatic Radiometric Assay; type: biochemical; details: [gamma-33P]-ATP, myelin basic protein substrate, read-out: HPK1 IC50 nM Range*
T1 construct: Recombinant (1-346) HPK1 (h) is incubated with 8 mM MOPS pH 7.0
T1 sequence (Q92918 1-346): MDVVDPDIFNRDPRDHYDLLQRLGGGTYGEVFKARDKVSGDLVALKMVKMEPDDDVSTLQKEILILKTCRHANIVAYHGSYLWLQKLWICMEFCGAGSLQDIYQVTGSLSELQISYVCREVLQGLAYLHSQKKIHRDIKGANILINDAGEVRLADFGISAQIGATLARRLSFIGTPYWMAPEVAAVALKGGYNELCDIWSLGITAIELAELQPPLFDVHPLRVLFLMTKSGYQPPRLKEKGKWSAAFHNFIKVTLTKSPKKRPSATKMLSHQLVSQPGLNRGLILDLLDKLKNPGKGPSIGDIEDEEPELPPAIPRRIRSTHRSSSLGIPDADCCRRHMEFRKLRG
Procedure: (a) HPK1 Human STE Kinase Enzymatic Radiometric Assay
A stock solution of 10 mM of test compound is prepared in DMSO. The compound plate was prepared by 3-fold and 9-point serial dilutions. Recombinant (1-346) HPK1 (h) is incubated with 8 mM MOPS pH 7.0, 0.2 mM EDTA, 0.33 mg/mL myelin basic protein, 10 mM MgAcetate and [gamma-33P]-ATP (specific activity and concentration as required). The reaction is initiated by the addition of the Mg/ATP mix. After incubation for 40 minutes at RT, the reaction is stopped by the addition of phosphoric acid to a concentration of 0.5%. 10 uL of the reaction is then spotted onto a P30 filtermat and washed four times for 4 minutes in 0.425% phosphoric acid and once in methanol prior to drying and scintillation counting. For more details of kinase assay protocols, see: Gao, Y. et. al.; Biochem J. 451 (2): 313-328, 2013.

Lck (h) = Lck (h) (Homo sapiens, UniProt P06239); experiment: Lck Human STE Kinase Enzymatic Radiometric Assay; type: biochemical; details: radiometric, [gamma-33P]-ATP, Cdc2 peptide substrate; read-out: Lck IC50, nM Range*
Procedure: (b) Lck Human STE Kinase Enzymatic Radiometric Assay
Lck (h) is incubated with 50 mM Tris pH 7.5, 0.1 mM EGTA, 0.1 mM Na3VO4, 250 uM KVEKIGEGTYGVVYK (Cdc2 peptide), 10 mM MgAcetate and [gamma-33P]-ATP (specific activity and concentration as required). The reaction is initiated by the addition of the Mg/ATP mix. After incubation for 40 minutes at room temperature, the reaction is stopped by the addition of phosphoric acid to a concentration of 0.5%. 10 uL of the reaction is then spotted onto a P30 filtermat and washed four times for 4 minutes in 0.425% phosphoric acid and once in methanol prior to drying and scintillation counting. For more details on the kinase assay procedures see: Gao, Y. et. al.; Biochem J., 451 (2): 313-328, 2013.
In some embodiments the presence of substituents on monocyclic Cy^2 rings or when Cy^2 is a bicyclic ring (unsubstituted or substituted) provides compounds with improved selectivity for inhibition of HPK1 vs Lck (see, for example, Table 3 and Table 4).

Sequence of Lck (h) (P06239 whole entry): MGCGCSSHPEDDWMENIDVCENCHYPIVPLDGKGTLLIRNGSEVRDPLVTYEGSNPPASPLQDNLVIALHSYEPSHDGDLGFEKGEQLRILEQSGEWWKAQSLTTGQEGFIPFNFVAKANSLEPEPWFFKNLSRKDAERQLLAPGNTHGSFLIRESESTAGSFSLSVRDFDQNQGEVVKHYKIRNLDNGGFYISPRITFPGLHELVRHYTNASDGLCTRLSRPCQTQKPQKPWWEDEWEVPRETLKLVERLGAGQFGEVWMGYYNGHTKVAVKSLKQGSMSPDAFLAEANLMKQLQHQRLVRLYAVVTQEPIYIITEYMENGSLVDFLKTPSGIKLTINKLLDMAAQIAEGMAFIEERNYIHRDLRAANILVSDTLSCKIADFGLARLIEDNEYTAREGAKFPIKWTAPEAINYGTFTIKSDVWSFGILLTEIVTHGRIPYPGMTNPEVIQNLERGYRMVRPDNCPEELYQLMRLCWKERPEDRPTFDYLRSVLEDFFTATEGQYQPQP

| SMILES | IC50 [1] | IC50 (Lck (h)) |
| --- | --- | --- |
| Nc1ncc(-c2ccc(C3CCN(CC(F)(F)F)CC3)cc2)nc1-c1ccc2c(c1)CCNC2=O [Example I-36, 6-(3-amino-6-(4-(1-(2,2,2-trifluoroethyl)piperidin-4-yl)phenyl)pyrazin-2-yl)-3,4-dihydroisoquinolin-1(2H)-one] | 0.1 to 5 nM | 11 to 20 nM |
| Nc1ncc(-c2ccc([C@@]34C[C@@H]3CN(CCF)C4)cc2)nc1-c1ccc2c(c1)CCNC2=O [Example I-37, 6-(3-amino-6-(4-((1R,5S)-3-(2-fluoroethyl)-3-azabicyclo[3.1.0]hexan-1-yl)phenyl)pyrazin-2-yl)-3,4-dihydroisoquinolin-1(2H)-one] | 0.1 to 5 nM | 6 to 10 nM |
| CC(C)[C@@H]1CN(c2ccc(-c3cnc(N)c(-c4ccc5c(c4)CCNC5=O)n3)cc2)CCN1C [Example I-38, (R)-6-(3-amino-6-(4-(3-isopropyl-4-methylpiperazin-1-yl)phenyl)pyrazin-2-yl)-3,4-dihydroisoquinolin-1(2H)-one] | 0.1 to 5 nM | 6 to 10 nM |
| CC(C)[C@@H]1CN(c2ccc(-c3cnc(N)c(-c4ccc5c(c4)CCNC5=O)n3)c(F)c2)CCN1C [Example I-39, (R)-6-(3-amino-6-(2-fluoro-4-(3-isopropyl-4-methylpiperazin-1-yl)phenyl)pyrazin-2-yl)-3,4-dihydroisoquinolin-1(2H)-one] | 0.1 to 5 nM | 11 to 20 nM |
| CC(C)[C@H]1CN(c2ccc(-c3cnc(N)c(-c4ccc5c(c4)CCNC5=O)n3)cc2)CCN1C [Example I-40, (S)-6-(3-amino-6-(4-(3-isopropyl-4-methylpiperazin-1-yl)phenyl)pyrazin-2-yl)-3,4-dihydroisoquinolin-1(2H)-one] | 0.1 to 5 nM | 6 to 10 nM |
| CC(C)[C@H]1CN(c2ccc(-c3cnc(N)c(-c4ccc5c(c4)CCNC5=O)n3)c(F)c2)CCN1C [Example I-41, (S)-6-(3-amino-6-(2-fluoro-4-(3-isopropyl-4-methylpiperazin-1-yl)phenyl)pyrazin-2-yl)-3,4-dihydroisoquinolin-1(2H)-one] | 0.1 to 5 nM | 21 to 200 nM |
| C[C@@H]1CCCN1c1ccc(-c2cnc(N)c(-c3ccc4c(c3)CCNC4=O)n2)cc1 [Example I-42, (R)-6-(3-amino-6-(4-(2-methylpyrrolidin-1-yl)phenyl)pyrazin-2-yl)-3,4-dihydroisoquinolin-1(2H)-one] | 0.1 to 5 nM | 11 to 20 nM |
| C[C@@H]1CCCN1c1ccc(-c2cnc(N)c(-c3ccc4c(c3)CCNC4=O)n2)c(F)c1 [Example I-43, (R)-6-(3-amino-6-(2-fluoro-4-(2-methylpyrrolidin-1-yl)phenyl)pyrazin-2-yl)-3,4-dihydroisoquinolin-1(2H)-one] | 6 to 10 nM | 21 to 200 nM |
| CC(C)N1CCN(c2ccc(-c3cnc(N)c(-c4cc5c(cc4F)C(=O)NCC5)n3)cc2)CC1 [Example I-44, 6-(3-amino-6-(4-(4-isopropylpiperazin-1-yl)phenyl)pyrazin-2-yl)-7-fluoro-3,4-dihydroisoquinolin-1(2H)-one] | 0.1 to 5 nM | 11 to 20 nM |
| CN1C[C@H]2C[C@@]2(c2ccc(-c3cnc(N)c(-c4cc5c(cc4F)C(=O)NCC5)n3)cc2)C1 [Example I-45, 6-(3-amino-6-(4-((1R,5S)-3-methyl-3-azabicyclo[3.1.0]hexan-1-yl)phenyl)pyrazin-2-yl)-7-fluoro-3,4-dihydroisoquinolin-1(2H)-one] | 0.1 to 5 nM | 11 to 20 nM |
| CC(C)N1C[C@H]2C[C@@]2(c2ccc(-c3cnc(N)c(-c4cc5c(cc4F)C(=O)NCC5)n3)cc2)C1 [Example I-46, 6-(3-amino-6-(4-((1R,5S)-3-isopropyl-3-azabicyclo[3.1.0]hexan-1-yl)phenyl)pyrazin-2-yl)-7-fluoro-3,4-dihydroisoquinolin-1(2H)-one] | 0.1 to 5 nM | 11 to 20 nM |
| CN1C[C@@H]2C[C@]2(c2ccc(-c3cnc(N)c(-c4cc5c(cc4F)C(=O)NCC5)n3)cc2)C1 [Example I-47, 6-(3-amino-6-(4-((1S,5R)-3-methyl-3-azabicyclo[3.1.0]hexan-1-yl)phenyl)pyrazin-2-yl)-7-fluoro-3,4-dihydroisoquinolin-1(2H)-one] | 0.1 to 5 nM | 11 to 20 nM |
| CC(C)N1C[C@@H]2C[C@]2(c2ccc(-c3cnc(N)c(-c4cc5c(cc4F)C(=O)NCC5)n3)cc2)C1 [Example I-48, 6-(3-amino-6-(4-((1S,5R)-3-isopropyl-3-azabicyclo[3.1.0]hexan-1-yl)phenyl)pyrazin-2-yl)-7-fluoro-3,4-dihydroisoquinolin-1(2H)-one] | 0.1 to 5 nM | 11 to 20 nM |
| CN1CCN(c2ccc(-c3cnc(N)c(-c4ccc5c(c4)CCCNC5=O)n3)cc2)CC1 [Example I-50, 7-(3-amino-6-(4-(4-methylpiperazin-1-yl)phenyl)pyrazin-2-yl)-2,3,4,5-tetrahydro-1H-benzo[c]azepin-1-one] | 0.1 to 5 nM | 6 to 10 nM |
| Nc1ncc(-c2ccc([C@]34C[C@H]3CN(C3CC3)C4)cc2)nc1-c1cc2c(cc1F)C(=O)NCC2 [Example I-52, 6-(3-amino-6-(4-((1S,5R)-3-cyclopropyl-3-azabicyclo[3.1.0]hexan-1-yl)phenyl)pyrazin-2-yl)-7-fluoro-3,4-dihydroisoquinolin-1(2H)-one] | 0.1 to 5 nM | 6 to 10 nM |
| Cc1nc2cc(-c3nc(-c4ccc(C5CCOCC5)c(CN(C)C)c4)cnc3N)ccc2c(=O)[nH]1 [II-3, 7-(3-amino-6-(3-((dimethylamino)methyl)-4-(tetrahydro-2H-pyran-4-yl)phenyl)pyrazin-2-yl)-2-methylquinazolin-4(3H)-one] | 0.1 to 5 nM | 21 to 200 nM |
| Cc1[nH]c(=O)c2cc(F)c(-c3nc(-c4ccc(C5CCOCC5)c(CN(C)C)c4)cnc3N)cc2c1F [II-6, 6-(3-amino-6-(3-((dimethylamino)methyl)-4-(tetrahydro-2H-pyran-4-yl)phenyl)pyrazin-2-yl)-4,7-difluoro-3-methylisoquinolin-1(2H)-one] | 0.1 to 5 nM | 21 to 200 nM |
